{"source": "patent US20030191347A1", "about": "(priority 2002, published 2003)", "experiment": "dissolution in water", "assay_type": "physicochemical", "details": "stated in words only, no figure"}
{"smiles": "COc1ccc(C(CN(C)C)C2(O)CCCCC2)cc1", "note": "(stereo not shown) [venlafaxine base, 1-[2-(dimethylamino)-1-(4-methoxyphenyl)ethyl]cyclohexanol]", "values": [{"measurement": "dissolution in water", "value": "slow"}]}
